Test results published in US9199942B2, “Processes for the preparation of pesticidal compounds” (Dow AgroSciences LLC, priority 2013, dated 2015).
Structures can show the parent of a compound that is named as a salt. Where two headings read alike, the source gives them in different places.

Tests used:
[1] = system: Green Peach Aphid (Myzus persicae) (MYZUPE); experiment: Bioassay on green peach aphid (GPA), foliar spray on infested cabbage seedlings; format: in vivo; settings: 72 h, read-out: MYZUPE rating (% Control of Mortality)
Protocol: Example A Bioassays on Green Peach Aphid (“GPA”) (Myzus persicae) (MYZUPE.
Several molecules disclosed herein were tested against GPA using procedures described below.
Cabbage seedling grown in 3-in pots, with 2-3 small (3-5 cm) true leaves, were used as test substrate. The seedlings were infested with […] (wingless adult and nymph stages) one day prior to chemical application. Four posts with individual seedlings were used for each treatment. Test compounds (2 mg) were dissolved in 2 mL of acetone/methanol (1:1) solvent, forming stock solutions of 1000 ppm test compound. The stock solutions were diluted 5× with 0.025% Tween 20 in water to obtain the solution at 200 ppm test compound. A hand-held aspirator-type sprayer was used for spraying a solution to both sides of the cabbage leaves until runoff. Reference plants (solvent check) were sprayed with the diluent only containing 20% by volume acetone/methanol (1:1) solvent. Treated plants were held in a holding room for three days at approximately 25° C. and ambient relative humidity (RH) prior to grading. Evaluation was conducted by counting the number of live aphids per plant under a microscope. Percent Control was measured by using Abbott's correction formula (W. S. Abbott, “A Method of Computing the Effectiveness of an Insecticide” J. Econ. Entomol 18 (1925), pp. 265-267) as follows. Corrected % Control=100*(X−Y)/X • where • X=No. of live aphids on solvent check plants and • Y=No. of live aphids on treated plants
The results are indicated in the table entitled “Table 1: GPA (MYZUPE) and sweetpotato whitefly-crawler (BEMITA) Rating Table”.

[2] = system: Sweetpotato Whitefly Crawler (Bemisia tabaci) (BEMITA); experiment: Bioassay on sweetpotato whitefly crawler, foliar spray on infested cotton plants; format: in vivo; settings: read-out: BEMITA rating (% Control of Mortality)
Source text: Example B Bioassays on Sweetpotato Whitefly Crawler (Bemisia tabaci) (BEMITA.)
Cotton plants grown in 3-inch pots, with 1 small (3-5 cm) true leaf, were used at test substrate. The plants were placed in a room with whitely adults. Adults were allowed to deposit eggs for 2-3 days. After a 2-3 day egg-laying period, plants were taken from the adult whitefly room. Adults were blown off leaves using a hand-held Devilbliss sprayer (23 psi). Plants with egg infestation (100-300 eggs per plant) were placed in a holding room for 5-6 days at 82° F. and 50% RH for egg hatch and crawler stage to develop. Four cotton plants were used for each treatment. Compounds (2 mg) were dissolved in 1 mL of acetone solvent, forming stock solutions of 2000 ppm. The stock solutions were diluted 10× with 0.025% Tween 20 in water to obtain a test solution at 200 ppm. A hand-held Devilbliss sprayer was used for spraying a solution to both sides of cotton leaf until runoff. Reference plants (solvent check) were sprayed with the diluent only. Treated plants were held in a holding room for 8-9 days at approximately 82° F. and 50% RH prior to grading. Evaluation was conducted by counting the number of live nymphs per plant under a microscope.

[3] = 200 ppm spray on cabbage leaves, live aphids counted after three days, Abbott's correction
[4] = 200 ppm spray on cotton leaves, live nymphs counted after 8-9 days, Abbott's correction

Row | SMILES | mortality at 200 ppm [1] [%] | mortality at 200 ppm [2] [%] | mortality at 200 ppm [1, 3] [%] | mortality at 200 ppm [2, 4] [%]
1 | Nc1c[nH]nc1Cl [Compound 1a, 3-chloro-1H-pyrazol-4-amine hydrochloride] | 0 to 80 | 0 to 80 | – | –
2 | O=C(CCSCCC(F)(F)F)Nc1c[nH]nc1Cl [Compound 3.4] | – | – | 0 to 80 | 0 to 80
3 | O=C(CCCl)Nc1c[nH]nc1Cl [Compound 4a, 3-chloro-N-(-3-chloro-1H-pyrazol-4-yl) propanamide] | – | – | < 0 | 0 to 80
